Assay [1] concerns the target T1, SeADO (cADO from Synechococcus elongates PCC7942) (Synechococcus elongatus, UniProt Q54764).
T1 construct: gene Synpcc7942_1593
T1 sequence (Q54764 1-231): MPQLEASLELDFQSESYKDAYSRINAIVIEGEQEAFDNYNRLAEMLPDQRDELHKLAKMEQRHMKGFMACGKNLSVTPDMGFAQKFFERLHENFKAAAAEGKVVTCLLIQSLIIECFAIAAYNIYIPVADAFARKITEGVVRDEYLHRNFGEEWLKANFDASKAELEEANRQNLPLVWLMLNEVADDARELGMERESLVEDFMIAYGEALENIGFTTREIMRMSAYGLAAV
The experiment in a line: X-ray crystal structure (WT1, […] A; also WT0, […] A, iron-free); GC-QqQ-MS/MS of extracted ligand. The assay is classed as binding. As to conditions: co-purified ligand in substrate channel; head group bound to Fe2 of di-iron center in WT1; modelled as long-chain fatty alcohol, C18 identified by MS.

Assay [2] has as its target T1, SeADO (cADO from Synechococcus elongates PCC7942). Briefly: GC of n-hexane in headspace. In kind it is biochemical. As to conditions: 2 mM n-heptanal, 4% DMSO, ferredoxin, ferredoxin reductase, 800 uM NADPH, 60 uM ferrous ammonium sulphate, O2, HEPES pH 7.2, 37 C.

As for `CCCCCCCCCCCCCCCCCCO` [Lred, C18 fatty alcohol], the “X-ray crystal structure (WT1, 2.3 A; also WT0, 2.26 A, iron-free); GC-QqQ-MS/MS” value in assay [1] is given as “the dominant of the remaining components was identified as a C18 fatty alcohol”.
Consider `CCCCCCC=O` [n-heptanal], for which the “GC of n-hexane in headspace” value in assay [2] is listed as “N-heptanal was selected as the substrate to measure the activity of cADO proteins”.

Source of the values: paper PMC4286721, “Structural insights into the catalytic mechanism of aldehyde-deformylating oxygenases” (Protein & Cell, 2014).
